According to publication PMC11284792, “Backbone-Determined Antiarrhythmic Structure–Activity Relationships for a Mirror Image, Oligomeric Depsipeptide Natural Product” (Journal of Medicinal Chemistry, 2024):
“Also recorded” adds a separate entry of the source. Like-named read-outs stand apart in the source and are kept apart here.

Tests used:
[1] = amide bond, 24-membered ring, PyBOP/DIPEA, DMF, 3 steps
RyR2 = biological target: T1, RyR2 (Mus musculus, UniProt E9Q401); assay: Calcium spark assay in saponin-permeabilized ventricular cardiomyocytes; assay type: cell-based, mouse (C57BL/6J); conditions: for Normalized Calcium Leak: CSV supplement, Series 2-5; for Normalized Calcium Leak / Calcium spark Amplitude (normalized to vehicle) / Calcium spark Leak (normalized to vehicle) / Calcium spark Mass (normalized to vehicle) / Calcium spark Frequency (normalized to vehicle): 25 μM drug, normalized to vehicle (DMSO), mean ± standard deviation; for Calcium spark Amplitude (normalized to vehicle) / Calcium spark Leak (normalized to vehicle) / Calcium spark Mass (normalized to vehicle) / Calcium spark Frequency (normalized to vehicle): Supplement Tables 2-3; for Calcium spark Amplitude (normalized to vehicle) / Calcium spark Leak (normalized to vehicle) / Calcium spark Mass (normalized to vehicle): permeabilized murine cardiomyocytes; for Calcium spark Frequency (normalized to vehicle): permeabilized murine left ventricular myocytes, 15 min incubation; for Inhibition of RyR2-mediated calcium sparks (in words): spark frequency after 15 min incubation with 25 μM compound, permeabilized myocytes
T1 construct: ventricular cardiomyocytes were isolated from C57Bl/6J mice, adhered to laminin-coated glass bottom culture dishes, permeabilized with saponin; endogenous in cells; host or cells: left ventricular cardiomyocytes freshly isolated from C57BL/6J mice, saponin-permeabilized
Method: With a wide range of ent-verticilide analogs in hand, organized by five series that systematically change the backbone functionality without modifying the alternating methyl and pentyl side chains, we pursued their evaluation in the calcium sparks assay for insight into potential antiarrhythmic activity.[3] Left ventricular myocytes were isolated from C57BL/6J mice and subjected to brief incubation with saponin, which permeabilizes the sarcolemma and enables equivalent access of compounds to RyR2, irrespective of their permeability.[14] Cardiomyocytes were then incubated in an internal solution designed to promote spontaneous RyR2-mediated calcium release events, known as sparks,[34] and the spark frequency was recorded following a 15 min incubation with 25 μM of each compound. Figure 3 summarizes these findings; no inhibition of RyR2 (lack of activity) is reflected as a value of 1 (dotted line). […] In that study, we noted that the 18-membered oligomer was more forgiving. […] Series 4–5 analogs produced nearly flat SAR, with no notable inhibition by any of the analogs.
Figure 3 RyR2-mediated calcium spark frequency in permeabilized left ventricular myocytes incubated with 25 μM drug for 15 min. All data normalized to vehicle (DMSO) condition. […] (A) *P < 0.0001 vs vehicle. N = 29 (2), 102 (5), 105 (5), 108 (5), 119 (4), and 87 cells (mice). Previously reported in Johnston et al. ACS Med. Chem. Lett., 2022, 13(11), 1755–1762. (B) *P < 0.0001 vs vehicle. # P = 0.00041 vs vehicle. N = 38, 46, 54, 50, and 50 cells, respectively, from 2 mice. (C) *P < 0.0001 vs vehicle. # P = 0.034 vs vehicle. N = 79 (4), 58 (3), 79 (4), 80 (5), and 91 (5) cells (mice). (D) P > 0.05 for all groups vs vehicle. N = 66 (4), 42 (2), 37 (2), 38 (2), 43(2), and 37 (2) cells (mice). (E) *P < 0.0001 vs vehicle. N = 66 (4), 85 (5), 93 (5), 100 (5), 89 (5), and 67 (4) cells (mice).
Calcium spark measurements were made, as previously described.[5] Briefly, ventricular cardiomyocytes were isolated from C57Bl/6J mice, adhered to laminin-coated glass bottom culture dishes, permeabilized with saponin, and incubated with an internal solution containing the calcium sensitive dye, Fluo-4. Elementary spark recordings were made using an Olympus inverted microscope equipped with a solid-state diode laser at 488 nm for excitation, 40× silicone objective (1.25 NA), and Hamamatsu CMOS camera for detection. Spark detection analysis was performed using SparkMaster2.[37]
Statistical analysis was carried out in R using a hierarchical clustering model to cluster data by experiment and account for mouse-to-mouse variability.[38] A cutoff value of 0.05 was used as the threshold to reject the null hypothesis. The numbers of cells and replicates (mice) are indicated in the figure legend for each compound.
Johnston et al. Supporting Information […]
of 0.05 was used as the threshold to reject the null hypothesis.
Safety: No unexpected or unusually high safety hazards were encountered.
Biological Experiment Data: Calcium spark parameters
For all series, assay is run with 25 μM solution of drug. Values are normalized to the vehicle (DMSO) condition and reported as mean ± standard deviation. Statistical comparisons were made using a hierarchical clustering model with Bonferroni correction. Adjusted p-values < 0.05 vs vehicle are indicated with an asterisk. Each mouse was an independent experiment, the replicates are listed as n (cells).
Supplement Table 1. Calcium spark parameters from murine cardiomyocytes for ent-verticilide and series 1 analogs.
Supplement Table 2. Calcium spark parameters from murine cardiomyocytes for series 2 analogs.
Supplement Table 3. Calcium spark parameters from murine cardiomyocytes for series 3 analogs. […]
Cardiovasc. Res.

T1 sequence (E9Q401 whole entry): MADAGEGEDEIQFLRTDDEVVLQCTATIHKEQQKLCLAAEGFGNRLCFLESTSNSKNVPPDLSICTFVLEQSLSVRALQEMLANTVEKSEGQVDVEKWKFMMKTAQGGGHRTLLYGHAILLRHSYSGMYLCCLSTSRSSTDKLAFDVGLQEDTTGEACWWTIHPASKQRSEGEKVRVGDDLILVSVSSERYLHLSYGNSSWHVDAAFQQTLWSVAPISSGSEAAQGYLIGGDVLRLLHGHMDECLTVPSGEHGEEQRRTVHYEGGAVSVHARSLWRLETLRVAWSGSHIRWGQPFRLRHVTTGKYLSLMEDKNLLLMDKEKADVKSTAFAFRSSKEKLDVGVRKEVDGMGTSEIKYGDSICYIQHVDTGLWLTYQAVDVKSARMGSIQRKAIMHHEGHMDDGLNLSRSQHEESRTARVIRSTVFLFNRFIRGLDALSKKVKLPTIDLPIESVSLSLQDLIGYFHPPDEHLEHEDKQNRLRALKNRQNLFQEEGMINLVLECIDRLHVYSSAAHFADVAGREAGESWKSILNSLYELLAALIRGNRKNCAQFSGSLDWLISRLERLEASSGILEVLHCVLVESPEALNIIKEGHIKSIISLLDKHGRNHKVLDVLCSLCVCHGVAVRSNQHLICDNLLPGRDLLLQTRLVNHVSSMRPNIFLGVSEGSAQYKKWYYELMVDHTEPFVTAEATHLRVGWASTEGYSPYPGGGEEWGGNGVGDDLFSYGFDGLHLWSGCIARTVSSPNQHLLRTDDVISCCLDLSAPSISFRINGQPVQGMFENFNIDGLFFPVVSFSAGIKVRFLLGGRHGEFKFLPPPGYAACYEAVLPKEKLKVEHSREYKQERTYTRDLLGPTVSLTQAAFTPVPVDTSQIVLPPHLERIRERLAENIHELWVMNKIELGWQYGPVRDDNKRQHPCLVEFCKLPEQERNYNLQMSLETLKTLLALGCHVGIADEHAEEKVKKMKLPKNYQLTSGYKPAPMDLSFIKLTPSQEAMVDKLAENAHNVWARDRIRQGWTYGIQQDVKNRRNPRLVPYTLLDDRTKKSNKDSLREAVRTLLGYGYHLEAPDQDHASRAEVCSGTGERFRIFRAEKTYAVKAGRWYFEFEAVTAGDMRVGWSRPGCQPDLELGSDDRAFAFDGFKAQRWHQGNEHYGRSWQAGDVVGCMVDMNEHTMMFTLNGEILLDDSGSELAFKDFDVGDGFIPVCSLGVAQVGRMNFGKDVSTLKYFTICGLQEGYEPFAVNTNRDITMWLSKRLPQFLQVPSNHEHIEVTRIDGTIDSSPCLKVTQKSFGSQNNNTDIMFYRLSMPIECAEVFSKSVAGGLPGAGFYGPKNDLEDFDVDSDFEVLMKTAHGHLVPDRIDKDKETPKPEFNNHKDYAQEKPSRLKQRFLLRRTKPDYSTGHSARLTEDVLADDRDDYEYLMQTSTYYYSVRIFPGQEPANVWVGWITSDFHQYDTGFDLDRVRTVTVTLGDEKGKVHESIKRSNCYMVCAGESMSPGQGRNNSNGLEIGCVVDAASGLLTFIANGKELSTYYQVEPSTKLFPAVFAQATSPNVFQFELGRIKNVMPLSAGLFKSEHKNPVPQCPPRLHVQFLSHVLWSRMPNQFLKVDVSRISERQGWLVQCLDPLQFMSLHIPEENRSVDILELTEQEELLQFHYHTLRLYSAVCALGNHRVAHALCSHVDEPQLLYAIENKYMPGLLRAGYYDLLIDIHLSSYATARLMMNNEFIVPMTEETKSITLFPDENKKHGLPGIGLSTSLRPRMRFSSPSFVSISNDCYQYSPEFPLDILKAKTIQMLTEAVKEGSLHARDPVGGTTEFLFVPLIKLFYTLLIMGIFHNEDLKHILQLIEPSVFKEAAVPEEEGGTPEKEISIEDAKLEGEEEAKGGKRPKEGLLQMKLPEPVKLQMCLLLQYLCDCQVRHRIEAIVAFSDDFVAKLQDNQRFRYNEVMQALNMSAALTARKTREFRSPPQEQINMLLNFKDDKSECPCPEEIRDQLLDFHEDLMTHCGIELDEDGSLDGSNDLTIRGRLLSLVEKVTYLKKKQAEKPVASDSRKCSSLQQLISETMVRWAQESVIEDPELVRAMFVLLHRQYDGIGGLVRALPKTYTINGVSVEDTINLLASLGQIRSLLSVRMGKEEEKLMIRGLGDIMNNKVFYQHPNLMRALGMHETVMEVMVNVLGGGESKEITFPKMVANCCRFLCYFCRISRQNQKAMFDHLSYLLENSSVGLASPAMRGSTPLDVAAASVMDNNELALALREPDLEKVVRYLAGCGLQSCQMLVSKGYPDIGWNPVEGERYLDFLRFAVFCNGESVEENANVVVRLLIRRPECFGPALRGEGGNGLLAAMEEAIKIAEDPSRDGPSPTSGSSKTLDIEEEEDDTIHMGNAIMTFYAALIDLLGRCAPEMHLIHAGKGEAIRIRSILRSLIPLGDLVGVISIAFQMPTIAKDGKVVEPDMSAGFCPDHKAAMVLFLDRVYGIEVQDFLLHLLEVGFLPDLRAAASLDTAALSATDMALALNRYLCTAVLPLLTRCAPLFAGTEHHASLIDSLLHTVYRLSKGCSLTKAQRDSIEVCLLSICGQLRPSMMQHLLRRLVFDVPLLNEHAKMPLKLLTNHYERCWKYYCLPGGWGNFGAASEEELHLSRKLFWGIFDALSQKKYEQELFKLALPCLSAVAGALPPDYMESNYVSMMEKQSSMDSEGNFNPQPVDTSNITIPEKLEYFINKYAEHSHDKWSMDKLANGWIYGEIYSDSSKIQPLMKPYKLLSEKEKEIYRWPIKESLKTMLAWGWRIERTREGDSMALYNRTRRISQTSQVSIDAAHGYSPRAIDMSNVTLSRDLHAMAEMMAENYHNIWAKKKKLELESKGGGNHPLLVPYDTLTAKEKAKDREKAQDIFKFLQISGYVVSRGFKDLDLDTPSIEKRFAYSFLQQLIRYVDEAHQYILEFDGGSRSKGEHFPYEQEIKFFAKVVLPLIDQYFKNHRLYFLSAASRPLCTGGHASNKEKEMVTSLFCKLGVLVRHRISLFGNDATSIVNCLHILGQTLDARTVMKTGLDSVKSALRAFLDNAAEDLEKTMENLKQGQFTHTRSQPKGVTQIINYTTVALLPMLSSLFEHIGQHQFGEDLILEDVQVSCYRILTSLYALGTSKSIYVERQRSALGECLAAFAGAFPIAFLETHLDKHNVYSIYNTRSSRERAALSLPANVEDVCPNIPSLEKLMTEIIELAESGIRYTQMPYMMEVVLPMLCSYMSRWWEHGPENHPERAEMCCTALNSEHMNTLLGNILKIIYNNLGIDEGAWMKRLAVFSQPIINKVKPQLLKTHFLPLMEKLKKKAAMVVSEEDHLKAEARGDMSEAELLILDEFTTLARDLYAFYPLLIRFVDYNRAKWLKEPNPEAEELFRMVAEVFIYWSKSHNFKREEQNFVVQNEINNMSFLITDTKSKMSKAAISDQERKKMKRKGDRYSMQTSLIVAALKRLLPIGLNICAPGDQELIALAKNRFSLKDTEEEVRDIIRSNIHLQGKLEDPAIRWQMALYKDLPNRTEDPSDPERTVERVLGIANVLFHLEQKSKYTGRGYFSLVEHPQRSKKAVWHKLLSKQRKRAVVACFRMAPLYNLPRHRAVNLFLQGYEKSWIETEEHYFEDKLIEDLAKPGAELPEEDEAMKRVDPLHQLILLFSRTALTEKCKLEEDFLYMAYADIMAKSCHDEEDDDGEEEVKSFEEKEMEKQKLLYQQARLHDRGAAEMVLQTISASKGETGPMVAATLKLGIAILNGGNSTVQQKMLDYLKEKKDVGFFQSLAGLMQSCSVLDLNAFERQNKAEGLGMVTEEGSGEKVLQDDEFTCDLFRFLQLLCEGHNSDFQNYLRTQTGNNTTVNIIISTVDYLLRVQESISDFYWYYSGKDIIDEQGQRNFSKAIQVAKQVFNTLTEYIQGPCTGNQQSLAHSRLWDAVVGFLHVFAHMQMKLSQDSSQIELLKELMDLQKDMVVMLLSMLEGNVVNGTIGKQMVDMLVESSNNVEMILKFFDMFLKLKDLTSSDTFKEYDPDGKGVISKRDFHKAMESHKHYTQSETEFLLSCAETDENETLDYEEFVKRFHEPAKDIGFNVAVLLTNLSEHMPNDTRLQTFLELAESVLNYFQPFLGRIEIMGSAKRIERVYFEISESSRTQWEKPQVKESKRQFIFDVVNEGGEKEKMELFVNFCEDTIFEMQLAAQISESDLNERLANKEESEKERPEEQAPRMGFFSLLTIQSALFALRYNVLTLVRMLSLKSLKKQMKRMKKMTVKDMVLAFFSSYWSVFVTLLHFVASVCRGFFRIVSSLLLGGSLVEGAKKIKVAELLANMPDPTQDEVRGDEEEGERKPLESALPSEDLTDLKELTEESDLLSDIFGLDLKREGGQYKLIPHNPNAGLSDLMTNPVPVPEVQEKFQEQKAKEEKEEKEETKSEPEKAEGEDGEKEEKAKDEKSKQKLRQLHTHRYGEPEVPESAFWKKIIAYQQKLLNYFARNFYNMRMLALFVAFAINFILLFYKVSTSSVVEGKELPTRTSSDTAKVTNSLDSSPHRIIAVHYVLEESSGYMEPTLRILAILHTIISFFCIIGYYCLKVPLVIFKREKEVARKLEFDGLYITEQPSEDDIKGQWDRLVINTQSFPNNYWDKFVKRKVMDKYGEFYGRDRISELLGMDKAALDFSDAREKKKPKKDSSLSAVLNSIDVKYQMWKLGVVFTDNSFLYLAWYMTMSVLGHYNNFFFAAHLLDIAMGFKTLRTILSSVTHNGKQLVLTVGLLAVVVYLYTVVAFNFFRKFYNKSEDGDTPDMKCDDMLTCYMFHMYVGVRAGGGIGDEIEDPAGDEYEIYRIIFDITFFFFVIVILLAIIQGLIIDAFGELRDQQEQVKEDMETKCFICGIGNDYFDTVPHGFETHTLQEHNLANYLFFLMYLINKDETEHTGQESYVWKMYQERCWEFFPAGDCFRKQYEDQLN

| Substance | Normalized Calcium Leak (RyR2) | Calcium spark Amplitude (normalized to vehicle) (RyR2) | Calcium spark Leak (normalized to vehicle) (RyR2) | Calcium spark Mass (normalized to vehicle) (RyR2) | Calcium spark Frequency (normalized to vehicle) (RyR2) | also measured |
| --- | --- | --- | --- | --- | --- | --- |
| (3R,6S,9R,12S,15R,18S,21R,24S)-1,3,4,7,9,10,13,15,16,19,21,22-dodecamethyl-6,12,18,24-tetrapentyl-1,4,7,10,13,16,19,22-octaazacyclotetracosan-2,5,8,11,14,17,20,23-octaone | – | – | – | – | – | ring closure, yield after HPLC [1]: 8% |
| (3R,6S,9R,12S,15R,18S,21R,24S)-1,3,4,7,9,10,13,15,16,19,21-undecamethyl-6,12,18,24-tetrapentyl-1,4,7,10,13,16,19,22-octaazacyclotetracosan-2,5,8,11,14,17,20,23-octaone | – | – | – | – | – | ring closure, yield after HPLC ([1]; 4.6 mM): 7.5% |
| (3R,6S,9R,12S,15R,18S,21R,24S)-1,3,4,7,9,10,13,15,16,19,21-undecamethyl-6,12,18,24-tetrapentyl-1,4,7,10,13,16,19,22-octaazacyclotetracosan-2,5,8,11,14,17,20,23-octaone [4.2] | 1.35 ± 1.14 | – | – | – | – | – |
| (3R,6S,9R,12S,15R,18S,21R,24S)-1,3,4,7,9,13,15,19,21-nonamethyl-6,12,18,24-tetrapentyl-1,4,7,10,13,16,19,22-octaazacyclotetracosan-2,5,8,11,14,17,20,23-octaone [4.5] | 1.43 ± 0.66 | – | – | – | – | – |
| (3R,6S,9R,12S,15R,18S,21R,24S)-1,3,7,9,13,15,19,21-octamethyl-6,12,18,24-tetrapentyl-1,4,7,10,13,16,19,22-octaazacyclotetracosan-2,5,8,11,14,17,20,23-octaone [4.6] | 1.15 ± 0.71 | – | – | – | – | – |
| (3R,6S,9R,12S,15R,18S,21R,24S)-3,4,7,9,10,13,15,16,19,21,22-undecamethyl-6,12,18,24-tetrapentyl-1-oxa-4,7,10,13,16,19,22-heptaazacyclotetracosan-2,5,8,11,14,17,20,23-octaone | – | – | – | – | – | ring closure, yield after HPLC ([1]; 5.0 mM): 16% |
| (3R,6S,9R,12S,15R,18S,21R,24S)-3,4,7,9,10,15,16,19,21,22-decamethyl-6,12,18,24-tetrapentyl-1,13-dioxa-4,7,10,16,19,22-hexaazacyclotetracosan-2,5,8,11,14,17,20,23-octaone [3.3] | 0.93 ± 0.45 | 1.00 ± 0.16 | 0.93 ± 0.45 | 0.96 ± 0.42 | 0.96 ± 0.26 | – |
| (3R,6S,9R,12S,15R,18S,21R,24S)-3,4,9,10,13,15,16,19,21,22-decamethyl-6,12,18,24-tetrapentyl-1,7-dioxa-4,10,13,16,19,22-hexaazacyclotetracosan-2,5,8,11,14,17,20,23-octaone | – | – | – | – | – | ring closure, yield after HPLC ([1]; 2.9 mM): 4% |
| (3R,6S,9R,12S,15R,18S,21R,24S)-3,4,9,10,13,15,16,19,21,22-decamethyl-6,12,18,24-tetrapentyl-1,7-dioxa-4,10,13,16,19,22-hexaazacyclotetracosan-2,5,8,11,14,17,20,23-octaone [3.2] | 0.99 ± 0.53 | 1.02 ± 0.20 | 0.99 ± 0.53 | 1.03 ± 0.50 | 0.97 ± 0.28 | – |
| (3R,6S,9R,12S,15R,18S,21R,24S)-3,4,9,10,15,16,19,21,22-nonamethyl-6,12,18,24-tetrapentyl-1,7,13-trioxa-4,10,16,19,22-pentaazacyclotetracosan-2,5,8,11,14,17,20,23-octaone [3.1] | 0.75 ± 0.63 | 0.99 ± 0.20 | 0.75 ± 0.63 | 0.81 ± 0.55 | 0.79 ± 0.29 | Inhibition of RyR2-mediated calcium sparks (in words) (RyR2): partial inhibition, but less so than analog 2.1; also recorded: measurable activity |
| (3R,6S,9R,12S,15R,18S,21R,24S)-3,4,9,10,15,16,21,22-octamethyl-6,12,18,24-tetrapentyl-1,7,13-trioxa-4,10,16,19,22-pentaazacyclotetracosan-2,5,8,11,14,17,20,23-octaone [2.1] | 0.60 ± 0.65 | 0.93 ± 0.31 | 0.60 ± 0.65 | 1.04 ± 0.64 | 0.51 ± 0.25 | Inhibition of RyR2-mediated calcium sparks (in words) (RyR2): modest potency; also recorded: measurable activity |
| (3R,6S,9R,12S,15R,18S,21R,24S)-3,4,9,10,15,16,21,22-octamethyl-6,12,18,24-tetrapentyl-1,13-dioxa-4,7,10,16,19,22-hexaazacyclotetracosan-2,5,8,11,14,17,20,23-octaone [2.3] | 1.03 ± 0.53 | 0.92 ± 0.19 | 1.03 ± 0.53 | 1.02 ± 0.43 | 1.01 ± 0.20 | – |
| (3R,6S,9R,12S,15R,18S,21R,24S)-3,4,9,10,15,16,21,22-octamethyl-6,12,18,24-tetrapentyl-1-oxa-4,7,10,13,16,19,22-heptaazacyclotetracosan-2,5,8,11,14,17,20,23-octaone [2.4] | 0.97 ± 0.56 | 1.08 ± 0.22 | 0.97 ± 0.56 | 0.98 ± 0.39 | 0.97 ± 0.17 | – |
| (3S,6R,9S,12R,15S,18R,21S,24R)-1,4,6,7,10,12,13,16,18,19,24-undecamethyl-3,9,15,21-tetrapentyl-1,4,7,10,13,16,19,22-octaazacyclotetracosan-2,5,8,11,14,17,20,23-octaone [5.2] | 1.08 ± 0.66 | – | – | – | – | – |
| (3S,6R,9S,12R,15S,18R,21S,24R)-1,4,6,7,10,12,13,18,19,24-decamethyl-3,9,15,21-tetrapentyl-1,4,7,10,13,16,19,22-octaazacyclotetracosan-2,5,8,11,14,17,20,23-octaone [5.3] | 1.23 ± 0.57 | – | – | – | – | – |
| (3S,6R,9S,12R,15S,18R,21S,24R)-1,4,6,7,12,13,16,18,19,24-decamethyl-3,9,15,21-tetrapentyl-1,4,7,10,13,16,19,22-octaazacyclotetracosan-2,5,8,11,14,17,20,23-octaone [5.4] | 1.14 ± 0.69 | – | – | – | – | – |
| (3S,6R,9S,12R,15S,18R,21S,24R)-1,4,6,7,12,13,18,19,24-nonamethyl-3,9,15,21-tetrapentyl-1,4,7,10,13,16,19,22-octaazacyclotetracosan-2,5,8,11,14,17,20,23-octaone [5.5] | 1.14 ± 0.65 | – | – | – | – | – |
| (3S,6R,9S,12R,15S,18R,21S,24R)-1,6,7,12,13,18,19,24-Octamethyl-3,9,15,21-tetrapentyl-1,4,7,10,13,16,19,22-octaazacyclotetracosan-2,5,8,11,14,17,20,23-octaone [2.5] | 1.09 ± 0.46 | 1.17 ± 0.34 | 1.09 ± 0.46 | 1.06 ± 0.35 | 1.04 ± 0.20 | – |
